Laboratory results reported in patent US20180178030A1, “PHOTODYNAMIC THERAPEUTIC METHOD FOR TREATING DENTAL INFECTION” (Olighter Co. Ltd., priority 2016, published 2018).

Legend:
[1] = test system: G (−) bacteria (Aggregatibacter actinomycetemcomitans, Fusobacterium nucleatum, Porphyromonas gingivalis); assay: in vitro bacterial disinfection by photodynamic therapy method (FIG. 8), G (−) bacteria; type: cell-based; details: photosensitizer plus infrared laser ray 808 nanometers, irradiation about 5 minutes
Text: (§1) One group assay represents the different bacterial disinfection by using the photodynamic therapy method in vitro with a specific irradiated wavelength of the light, and the other group assay represents the different bacterial disinfection by using the photodynamic therapy method in vitro with a specific compound X and the specific irradiated wavelength of the light.
(§2) The light is infrared laser ray. The specific irradiated wavelength of the infrared laser ray of is 808 nanometers. The specific compound X is a photosensitizer. The photosensitizer is the indocyanine green dye. The period of irradiating the bacteria is about 5 minutes. The bacteria include gram positive (G (+)) bacteria and gram negative (G (−)) bacteria. The G (+) bacteria include a Streptococcus mutans (S. mutans) and a Streptococcus sobrinus (S. sobrinus). The G (−) bacteria include an Aggregatibacter actinomycetemcomitans (A. actinomycetemcomitans), a Fusobacterium nucleatum (F. nucleatum), and a Porphyromonas gingivalis (P. gingivalis).
(§3) Referring to FIG. 8, when the photodynamic therapy method in vitro uses the specific photosensitizer and the specific irradiated wavelength of the light, the G (+) bacterial show the percentage growth rate as zero, and the G (−) bacteria show the percentage growth rate as less than 20%.

[2] = test system: G (+) bacteria (Streptococcus mutans, Streptococcus sobrinus); assay: in vitro bacterial disinfection by photodynamic therapy method (FIG. 8), G (+) bacteria; type: cell-based; details: photosensitizer plus infrared laser ray 808 nanometers, irradiation about 5 minutes
Text: as §1, §2, §3

## CC1(C)C(/C=C/C=C/C=C/C=C2\N(CCCCS(=O)(=O)O)c3ccc4ccccc4c3C2(C)C)=[N+](CCCCS(=O)(=O)[O-])c2ccc3ccccc3c21 [specific photosensitizer, indocyanine green]
[1]
  percentage growth rate of the bacteria: less than 20%
[2]
  percentage growth rate of the bacteria: zero
